Data reported in patent US5733913A, “6-Aryl pyrido[2,3-d] pyrimidines and naphthyridines for inhibiting protein tyrosine kinase mediated cellular proliferation” (priority 1995, dated 1998).
Read-outs that look alike come from different tables or passages of the source.

Experiments:
Assay type in all cases: biochemical
[1] = target: T1, mouse PDGF-β receptor tyrosine kinase (Mus musculus, UniProt P05622); test: PDGF receptor tyrosine kinase assay; conditions: for IC50: read-out: Inhibition of Protein Tyrosine Kinases, PDGF, IC50; for inhibition at 50 µM: read-out: Inhibition of Protein Tyrosine Kinases, PDGF, % Inhibition
T1 construct: a fragment of DNA that codes for the intracellular tyrosine kinase domain; made in house; host or cells: Sf9 insect cells (baculovirus), cell lysate
Excerpt: (§1) PDGF and FGF Receptor Tyrosine Kinase Assays
(§2) Full length cDNAs for the mouse PDGF-β and human FGF-1 (flg) receptor tyrosine kinases were obtained from J. Escobedo and prepared as described in J. Biol. Chem., 262:1482-1487 (1991), and PCR primers were designed to amplify a fragment of DNA that codes for the intracellular tyrosine kinase domain. The fragment was melded into a baculovirus vector, cotransfected with AcMNPV DNA, and the recombinant virus isolated. SF9 insect cells were infected with the virus to overexpress the protein, and the cell lysate was used for the assay. […] Briefly, to each well was added 82.5 μL of incubation buffer containing 25 mM Hepes (pH 7.0), 150 mM NaCl, 0.1% Triton X-100, 0.2 mM PMSF, 0.2 mM Na3 VO4, 10 mM MnCl2, and 750 μg/mL of Poly (4:1) glutamate-tyrosine followed by 2.5 μL of inhibitor and 5 μL of enzyme lysate (7.5 μg/μL FGF-TK or 6.0 μg/μL PDGF-TK) to initiate the reaction. Following a 10 minute incubation at 25° C., 10 μL of γ^32 P-ATP (0.4 μCi plus 50 μM ATP) was added to each well and samples were incubated for an additional 10 minutes at 25° C. The reaction was terminated by the addition of 100 μL of 30% trichloroacetic acid (TCA) containing 20 mM sodium pyrophosphate and precipitation of material onto glass fiber filter mats (Wallac). […] Nonspecific activity was defined as radioactivity retained on the filters following incubation of samples with buffer alone (no enzyme). Specific enzymatic activity was defined as total activity (enzyme plus buffer) minus nonspecific activity.

[2] = target: T2, human FGF-1 (flg) receptor tyrosine kinase (Homo sapiens, UniProt P11362); test: FGF receptor tyrosine kinase assay; conditions: for IC50: read-out: Inhibition of Protein Tyrosine Kinases, FGF, IC50; for inhibition at 50 µM: read-out: Inhibition of Protein Tyrosine Kinases, FGF, % Inhibition
T2 construct: a fragment of DNA that codes for the intracellular tyrosine kinase domain; made in house; host or cells: Sf9 insect cells (baculovirus), cell lysate
Excerpt: as §1, §2

[3] = target: T3, C-src kinase (Homo sapiens, UniProt P12931); test: C-src kinase assay; conditions: for inhibition at 50 µM: read-out: Inhibition of Protein Tyrosine Kinases, C-src, % Inhibition
T3 construct: made in house; host or cells: baculovirus-infected insect cells
Protocol: V-src and C-src Kinase Assays
V-src or C-src kinase is purified from baculovirus infected insect cell lysates using an antipeptide monoclonal antibody directed against the N-terminal 2-17 amino acids. The antibody, covalently linked to 0.65-μm latex beads, is added to a suspension of insect cell lysis buffer comprised of 150 mM NaCl, 50 mM Tris pH 7.5, 1 mM DTT, 1% NP-40, 2 mM EGTA, 1 mM sodium vanadate, 1 mM PMSF, 1 μg/mL each of leupeptin, pepstatin, and aprotinin. […] At the end of the lysate incubation, the beads are rinsed 3 times in lysis buffer, resuspended in lysis buffer containing 10% glycerol, and frozen. These latex beads are thawed, rinsed three times in assay buffer which is comprised of 40 mM tris pH 7.5, 5 mM MgCl2, and suspended in the same buffer. In a Millipore 96-well plate with a 0.65 μm polyvinylidine membrane bottom are added the reaction components: 10-μL v-src or c-src beads, 10 μL of 2.5 mg/mL poly GluTyr substrate, 5 μM ATP containing 0.2 μCi labeled ^32 P-ATP, 5μL DMSO containing inhibitors or as a solvent control, and buffer to make the final volume 125 μL. The reaction is started at room temperature by addition of the ATP and quenched 10 minutes later by the addition of 125 μL of 30% TCA, 0.1M sodium pyrophosphate for 5 minutes on ice. The plate is then filtered and the wells washed with two 250-μL aliquots of 15% TCA, 0.1M pyrophosphate. The filters are punched, counted in a liquid scintillation counter, and the data examined for inhibitory activity in comparison to a known inhibitor such as erbstatin. The method is described more fully in J. Med. Chem., 37:598-609 (1994).

[4] = read-out: Inhibition of Protein Tyrosine Kinases, C-src, IC50

T1 sequence (P05622 599-961 limits assumed): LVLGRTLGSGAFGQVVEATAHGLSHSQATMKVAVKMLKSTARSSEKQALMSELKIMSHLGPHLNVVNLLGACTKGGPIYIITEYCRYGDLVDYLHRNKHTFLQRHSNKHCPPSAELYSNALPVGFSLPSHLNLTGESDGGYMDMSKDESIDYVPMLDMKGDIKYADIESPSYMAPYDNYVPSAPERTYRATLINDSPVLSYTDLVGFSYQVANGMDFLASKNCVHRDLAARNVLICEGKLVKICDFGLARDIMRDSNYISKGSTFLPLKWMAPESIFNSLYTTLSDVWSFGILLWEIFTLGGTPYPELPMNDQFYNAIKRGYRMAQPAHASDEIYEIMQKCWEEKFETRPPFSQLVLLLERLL
T3 sequence (P12931 whole entry): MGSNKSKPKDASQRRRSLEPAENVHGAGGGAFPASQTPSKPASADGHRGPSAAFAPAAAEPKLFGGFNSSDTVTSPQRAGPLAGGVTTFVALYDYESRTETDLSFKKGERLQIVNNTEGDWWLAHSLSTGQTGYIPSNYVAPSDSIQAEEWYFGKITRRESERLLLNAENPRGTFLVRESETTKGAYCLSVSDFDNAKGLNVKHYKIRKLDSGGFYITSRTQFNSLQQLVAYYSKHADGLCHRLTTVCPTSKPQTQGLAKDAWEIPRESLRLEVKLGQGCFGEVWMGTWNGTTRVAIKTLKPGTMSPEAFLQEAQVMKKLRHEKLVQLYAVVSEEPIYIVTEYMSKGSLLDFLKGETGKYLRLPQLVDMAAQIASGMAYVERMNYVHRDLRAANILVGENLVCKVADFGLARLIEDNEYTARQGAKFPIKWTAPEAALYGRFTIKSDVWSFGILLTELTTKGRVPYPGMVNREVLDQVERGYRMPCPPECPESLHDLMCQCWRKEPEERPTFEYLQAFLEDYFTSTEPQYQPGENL
T2 sequence (P11362 478-767 limits assumed): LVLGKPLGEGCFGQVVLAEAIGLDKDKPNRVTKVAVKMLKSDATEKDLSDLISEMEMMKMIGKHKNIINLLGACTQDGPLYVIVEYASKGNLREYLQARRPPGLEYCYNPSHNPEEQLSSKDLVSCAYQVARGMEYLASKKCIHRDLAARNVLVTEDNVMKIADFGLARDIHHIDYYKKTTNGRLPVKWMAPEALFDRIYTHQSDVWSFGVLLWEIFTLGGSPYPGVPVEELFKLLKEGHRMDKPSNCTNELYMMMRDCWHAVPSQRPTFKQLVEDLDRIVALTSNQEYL

SMILES | IC50 [1] [µM] | IC50 [2] [µM] | further results
Cc1cc(C)c(-c2cc3cnc(N)nc3nc2N)c(C)c1 [Example 96, 6-(2,4,6-Trimethyl-phenyl)-pyrido[2,3-d]pyrimidine-2,7-diamine] | 27.4 | 3.84 | –
CCN(CC)CCCNc1ncc2cc(-c3c(Br)cccc3Br)c(N)nc2n1 [Example 61, 6-(2,6-Dibromo-phenyl)-N^2-[3-diethylamino-propyl)-pyrido[2,3-d]pyrimidine-2,7-diamine] | 45.6 | 7.85 | IC50 [3, 4]: 0.764 µM
CC(C)(C)NC(=O)Nc1nc2nc(N)ncc2cc1-c1ccccc1 [Example 82, 1-(2-Amino-6-phenyl-pyrido[2,3-d]pyrimidin-7-yl)-3-tert-butyl-urea] | 4.67 | 3.71 | inhibition at 50 µM [3]: 77.6%
COc1cccc(OC)c1-c1cc2cnc(N)nc2nc1N [Example 64, 6-(2,6-Dimethoxy-phenyl)-pyrido[2,3-d]pyrimidine-2,7-diamine] | – | – | inhibition at 50 µM [3]: 0%; inhibition at 50 µM [1]: 13%; inhibition at 50 µM [2]: 23.8%
Nc1ncc2cc(-c3c(F)cccc3F)c(N)nc2n1 [Example 63, 6-(2,6-Difluoro-phenyl)-pyrido[2,3-d]pyrimidine-2,7-diamine] | 7.01 | 0.543 | IC50 [3, 4]: 1.78 µM
COc1cccc(NC(=O)Nc2nc3nc(NCCCN4CCN(C)CC4)ncc3cc2-c2c(Cl)cccc2Cl)c1 [Example 42, 1-{6-(2,6-Dichlorophenyl)-2-[3-(4-methyl-piperazin-1-yl)-propylamino]-pyrido[2,3-d]pyrimidin-7-yl}-3-(3-methoxy-phenyl)-urea] | 0.624 | – | IC50 [3, 4]: 0.032 µM
Nc1ncc2cc(-c3ccncc3)c(N)nc2n1 [Example 109, 6-Pyridin-4-yl-pyrido[2,3-d]pyrimidine-2,7-diamine] | – | – | inhibition at 50 µM [1]: 23.6%; inhibition at 50 µM [2]: 10.3%
Nc1ncc2cc(-c3c(Br)cccc3Br)c(N)nc2n1 [Example 60, 6-(2,6-Dibromo-phenyl)-pyrido[2,3-d]pyrimidine-2,7-diamine] | – | 13 | IC50 [3]: 1.57 µM
CN(C)C=Nc1ncc2cc(-c3c(Cl)cccc3Cl)c(N=CN(C)C)nc2n1 [Example 80, N'-[6-(2,6-Dichlorophenyl)-7-[(dimethylamino)methylene-amino]-pyrido[2,3-d]pyrimidin-2-yl]-N,N-dimethylformamidine] | – | 10.2 | inhibition at 50 µM [1]: 22.9%
CCN(CC)C(=O)Nc1nc2nc(NCCCN3CCN(C)CC3)ncc2cc1-c1c(Cl)cccc1Cl [Example 119, 3-{6-(2,6-Dichlorophenyl)-2-[3-(4-methyl-piperazin-1-yl)-propylamino]-pyrido[2,3-d]pyrimidin-7-yl}-1,1-diethyl-urea] | 62.4 | 7.71 | –
Nc1ncc2cc(-c3c(Cl)cccc3Br)c(N)nc2n1 [Example 104, 6-(2-Bromo-6-chloro-phenyl)-pyrido[2,3-d]pyrimidine-2,7-diamine] | 36.7 | 5.32 | –
C=CCNC(=O)Nc1nc2nc(NCCCN3CCN(C)CC3)ncc2cc1-c1c(Cl)cccc1Cl [Example 40, 1-Allyl-3-{6-(2,6-dichlorophenyl)-2-[3-(4-methyl-piperazin-1-yl)-propylamino]-pyrido[2,3-d]pyrimidin-7-yl}-urea] | 0.697 | 0.0574 | –
COc1ccc(NC(=O)Nc2nc3nc(NCCCN4CCN(C)CC4)ncc3cc2-c2c(Cl)cccc2Cl)cc1 [Example 41, 1-{6-(2,6-Dichlorophenyl)-2-[3-(4-methyl-piperazin-1-yl)-propylamino]-pyrido[2,3-d]pyrimidin-7-yl}-3-(4-methoxy-phenyl)-urea] | – | – | IC50 [3, 4]: 0.086 µM
Cc1cc(C)c(C)c(-c2cc3cnc(N)nc3nc2NC(=O)NC(C)(C)C)c1C [Example 99, 1-[2-Amino-6-(2,3,5,6-tetramethyl-phenyl)-pyrido[2,3-d]pyrimidin-7-yl]-3-tert-butyl-urea] | – | – | inhibition at 50 µM [3]: 17.1%
CN1CCN(CCCNc2ncc3cc(-c4c(Cl)cccc4Cl)c(NC(=O)NC4CCCCC4)nc3n2)CC1 [Example 37, 1-Cyclohexyl-3-{6-(2,6-dichlorophenyl)-2-[3-(4-methyl-piperazin-1-yl)-propylamino]-pyrido[2,3-d]pyrimidin-7-yl}-urea] | – | – | inhibition at 50 µM [3]: 106%
CN1CCN(CCCNc2ncc3cc(-c4c(Cl)cccc4Cl)c(NC(=S)NC(C)(C)C)nc3n2)CC1 [Example 118, 1-tert-Butyl-3-{6-(2,6-dichlorophenyl)-2-[3-(4-methyl-piperazin-1-yl)-propylamino]-pyrido[2,3-d]pyrimidin-7-yl}-thiourea] | 1.92 | 0.126 | –
Cc1cc(C)cc(-c2cc3cnc(N)nc3nc2N)c1 [Example 94, 6-(3,5-Dimethyl-phenyl)-pyrido[2,3-d]pyrimidine-2,7-diamine] | – | 17.6 | inhibition at 50 µM [1]: 11.5%
CC1CCCCN1CCCNc1ncc2cc(-c3c(Cl)cccc3Cl)c(NC(=O)NC(C)(C)C)nc2n1 (stereo not drawn) [Example 32, 1-tert-Butyl-3-{6-(2,6-dichlorophenyl)-2-[3-(2-methyl-piperidin-1-yl)-propylamino]-pyrido[2,3-d]pyrimidin-7-yl}-urea] | 0.415 | – | IC50 [3, 4]: 5 µM
CN1CCN(CCCNc2ncc3cc(-c4c(Cl)cccc4Cl)c(NC(=O)Nc4cccc5ccccc45)nc3n2)CC1 [Example 50, 1-{6-(2,6-Dichlorophenyl)-2-[3-(4-methyl-piperazin-1-yl)-propylamino]-pyrido[2,3-d]pyrimidin-7-yl}-3-naphthalen-1-yl-urea] | 2.6 | 0.305 | –
CN1CCN(CCCNc2ncc3cc(-c4c(Cl)cccc4Cl)c(NC4=NCCCO4)nc3n2)CC1 [Example 35, 6-(2,6-Dichlorophenyl)-N^7-(5,6-dihydro-4H-[1,3]oxazin-2-yl)-N^2-[3-(4-methyl-piperazin-1-yl)-propyl]-pyrido[2,3-d]pyrimidine-2,7-diamine] | 2.08 | – | inhibition at 50 µM [2]: 97.9%
CN1CCN(CCCNc2ncc3cc(-c4c(Cl)cccc4Cl)c(NC(=O)NCc4ccccc4)nc3n2)CC1 [Example 39, 1-Benzyl-3-{6-(2,6-dichlorophenyl)-2-[3-(4-methyl-piperazin-1-yl)-propylamino]-pyrido[2,3-d]pyrimidin-7-yl}-urea] | – | – | IC50 [3, 4]: 0.021 µM
CCN(CC)CCCCNc1ncc2cc(-c3c(Cl)cccc3Cl)c(NC(=S)NCCCN3CCOCC3)nc2n1 [Example 122, 1-[6-(2,6-Dichlorophenyl)-2-(4-diethylamino-butylamino)-pyrido[2,3-d]pyrimidin-7-yl]-3-(3-morpholin-4-yl-propyl)-thiourea] | 1.46 | 0.171 | –
CN1CCN(CCCCNc2ncc3cc(-c4c(Cl)cccc4Cl)c(NC(=O)NC(C)(C)C)nc3n2)CC1 [Example 34, 1-tert-Butyl-3-{6-(2,6-dichlorophenyl)-2-[4-(4-methyl-piperazin-1-yl)-butylamino]-pyrido[2,3-d]pyrimidin-7-yl}-urea] | 0.349 | – | IC50 [3, 4]: 0.011 µM
Cc1cc(C)c(C)c(-c2cc3cnc(NCCCN4CCN(C)CC4)nc3nc2NC(=O)NC(C)(C)C)c1C [Example 121, 1-tert-Butyl-3-{2-[3-(4-methyl-piperazin-1-yl)-propylamino]-6-(2,3,5,6-tetramethyl-phenyl)-pyrido-[2,3-d]pyrimidin-7-yl}-urea] | – | 0.142 | inhibition at 50 µM [1]: 21.8%
